What was measured:
[1] = target: 2-aminoethanethiol (cysteamine) dioxygenase (ADO), biotinylated, for SPR (human) (UniProt Q96SZ5); experiment: SPR; Biacore T200; biotinylated ADO immobilized on a Biotin CAP chip (∼2500 to 3000 RU), peptide/protein substrates injected; 4 °C; 20 mM Hepes pH 7.5, 500 mM NaCl, 10 mM DTT, 0.1% tween-20; 50 μl/min; multicycle, equilibrium steady state affinity 1:1 binding model
ADO = target: T1, ADO (Homo sapiens, UniProt Q96SZ5); experiment: LC-MS enzyme activity assay (Nt-cys sulfinylation by ADO); type: biochemical; settings: 100 μM peptide, 0.1 μM ADO, 37 °C, 45 s and 1 h incubations
T1 construct: Full-length human ADO (UniProt ID: Q96SZ5) was cloned; made in house; host or cells: Rosetta2(DE3) Escherichia coli
T1 sequence (Q96SZ5 1-270): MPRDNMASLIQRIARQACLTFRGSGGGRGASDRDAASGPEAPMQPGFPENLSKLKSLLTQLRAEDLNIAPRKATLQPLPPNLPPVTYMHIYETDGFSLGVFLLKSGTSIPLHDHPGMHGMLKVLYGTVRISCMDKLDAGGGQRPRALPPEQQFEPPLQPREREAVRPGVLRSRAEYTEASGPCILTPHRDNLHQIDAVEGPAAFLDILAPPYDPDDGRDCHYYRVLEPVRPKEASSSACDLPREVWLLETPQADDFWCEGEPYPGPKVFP
Procedure: […] Otherwise stated, the reaction buffer contained 50 mM Tris pH 7.5, 50 mM NaCl, and 5 mM TCEP. The reactions were quenched by mixing the sample 1:10 (peptide) or 1:5 (protein) with 1% formic acid (v/v).
Peptide and protein samples were injected onto a Chromolith RP-18 Endcapped HPLC Columns (100–2 mm; Merck) and Discovery BIO Wide Pore C5 HPLC Column (Supelco), respectively, heated to 40 °C and eluted at 0.3 ml/min using a gradient of 95% deionized water supplemented with 0.1% (v/v) formic acid to 95% acetonitrile. Oxidation was monitored by an ultra high-performance liquid chromatography MS using ExionLC AD (Sciex) and SelexION (Sciex) mass spectrometer operated in a positive electrospray TOF (+ESI-TOF) mode. Instrument parameters, data acquisition and data processing were controlled by Analyst software (Sciex; https://sciex.com/products/software/analyst-software). The peptide data processing was performed using Skyline software (MacCoss Lab Software; https://skyline.ms/project/home/software/Skyline/begin.view) ([38]). All figures and parameters were generated using GraphPad Prism 9 (GraphPad; https://www.graphpad.com/features).

ADO-Co^2+ = target: T2, ADO-Co^2+ (Homo sapiens, UniProt Q96SZ5); experiment: SPR binding (single cycle kinetics) to cobalt-substituted ADO; settings: 4 °C, significantly slower off-rate
T2 construct: Full-length human ADO (UniProt ID: Q96SZ5) was cloned; made in house; host or cells: Rosetta2(DE3) Escherichia coli, M9 minimal media with 0.2 mM Co2+ or Zn2+
T2 sequence (Q96SZ5 1-270): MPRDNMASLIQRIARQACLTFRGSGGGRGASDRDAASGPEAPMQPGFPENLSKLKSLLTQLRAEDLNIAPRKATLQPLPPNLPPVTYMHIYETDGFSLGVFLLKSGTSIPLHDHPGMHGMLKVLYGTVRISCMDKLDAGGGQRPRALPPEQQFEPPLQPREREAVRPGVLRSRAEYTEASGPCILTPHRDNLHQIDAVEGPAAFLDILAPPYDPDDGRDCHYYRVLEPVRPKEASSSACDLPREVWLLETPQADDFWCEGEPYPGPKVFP
Procedure: To study if different metals can compensate for the inherent iron cofactor, zinc (Zn^2+) and cobalt (Co^2+) substituted ADO was produced through minimal media expression, validated by ICP-MS, and analyzed for binding by SPR (Fig. 2E).
(§1) SPR measurements were made using a Biacore T200 (Cytiva) instrument and data were analyzed using the Biacore Insight Evaluation Software (Cytiva; https://www.cytivalifesciences.com/en/us/shop/protein-analysis/spr-label-free-analysis/spr-software-and-extensions/biacore-insight-evaluation-software-p-23528). Biotinylated-ADO was immobilized on a Biotin CAP chip (Cytiva) with a target density of ∼2500 to 3000 RU and peptide/protein substrates were injected over the chip. […] A buffer comprising 20 mM Hepes pH 7.5, 500 mM NaCl, 10 mM DTT, and 0.1% (v/v) tween-20 was used as the running buffer at a flow rate of 50 μl/min.

[2] = target: T3, ADO (2-aminoethanethiol dioxygenase), iron-bound wild type (Homo sapiens, UniProt Q96SZ5); experiment: SPR binding of peptide/protein substrates to immobilised ADO
T3 construct: Full-length human ADO (UniProt ID: Q96SZ5) was cloned; made in house; host or cells: Rosetta2(DE3) Escherichia coli
T3 sequence (Q96SZ5 1-270): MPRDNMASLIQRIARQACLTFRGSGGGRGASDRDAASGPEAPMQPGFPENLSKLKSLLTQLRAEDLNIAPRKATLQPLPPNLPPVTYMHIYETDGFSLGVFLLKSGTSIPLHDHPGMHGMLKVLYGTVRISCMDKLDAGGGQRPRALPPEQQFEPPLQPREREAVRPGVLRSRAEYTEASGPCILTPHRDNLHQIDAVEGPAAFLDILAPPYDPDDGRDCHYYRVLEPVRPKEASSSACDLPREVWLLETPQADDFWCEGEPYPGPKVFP
Excerpt: ADO catalyzes the O2-dependent sulfinylation of Nt-cys residues, which reportedly bind to the iron cofactor in a monodentate arrangement through ligation of the thiol group ([14], [15]). To test the importance of Nt-cys modifications and substitutions on ADO association, a SPR assay was established. […] Data collected under steady state conditions is presented in the main text and kinetic constants are provided in the Tables S1–S8 (alongside steady state measurements). All measurements were collected at 4 °C to minimize enzyme activity.
as §1
For metal-chelation experiments, a mixture of 10 mM 1, 10-phenanthroline and 100 mM EDTA (pH 8) was injected onto the chip using 10 × 60 s injections at a 100 μl/min flow rate. […] The instrument and chip were primed into buffer excluding reducing agents before conducting metal chelation and iron reconstitution.

ADO-H193D = target: T4, ADO-H193D (Homo sapiens, UniProt Q96SZ5, H193D); experiment: SPR binding to metal-deficient ADO-H193D mutant; settings: 4 °C
T4 construct: Full-length human ADO (UniProt ID: Q96SZ5) was cloned; made in house; host or cells: Rosetta2(DE3) Escherichia coli
T4 sequence (Q96SZ5 1-270 H193D): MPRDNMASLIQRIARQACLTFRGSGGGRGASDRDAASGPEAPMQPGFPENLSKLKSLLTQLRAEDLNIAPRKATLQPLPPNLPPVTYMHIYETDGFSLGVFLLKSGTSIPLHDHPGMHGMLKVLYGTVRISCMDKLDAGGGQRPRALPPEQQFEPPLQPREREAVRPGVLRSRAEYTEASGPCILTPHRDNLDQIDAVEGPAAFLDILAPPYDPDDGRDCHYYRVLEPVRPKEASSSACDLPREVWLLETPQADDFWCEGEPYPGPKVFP
Excerpt: To further validate the importance of metal coordination in protein substrate binding, an ADO-H193D mutant, which is known to impair iron retention, was generated (Fig. S1B). A significant reduction in metal occupancy was confirmed by ICP-MS (Fig. 2C). This correlated with a low SPR-binding response of approximately ∼2 to 3 RU, indicating a reduced population of substrate-binding ADO on the chip relative to the total amount of immobilized ADO (Figs. 2D and S5D). Furthermore, the calculated Kᴅ values with native RGS5 and IL32 peptides were ∼13-fold and ∼77-fold weaker, respectively, than the interactions with WT ADO (Table S3).
as §1

Kd [1] | Oxidation (sulfinylation, +32 Da) by ADO (ADO) | Fold increase in binding affinity with ADO-Co^2+ relative to native ADO (ADO-Co^2+) | Kd ([2]; SPR steady state, 1:1 binding model, biotinylated ADO on Biotin CAP chip, 4 °C, 20 mM Hepes pH 7.5, 500 mM NaCl, 10 mM DTT, 0.1% tween-20, geometric mean (± SD) of minimum three independent measurements, read-out: Equilibrium dissociation constant KD) | Maximum response (Rmax) ([2]; SPR, ADO prior to chelation treatment) | Loss in Rmax following chelation of the immobilized ADO-bound metal ([2]; SPR, after 10 mM 1,10-phenanthroline and 100 mM EDTA) | Fold weaker KD with ADO-H193D than with WT ADO (ADO-H193D) | Substance
460 nM |  |  |  |  |  |  | RGS5 tripeptide (tri-RGS5) (from UniProt O15539 2-4)
1200 nM |  |  |  |  |  |  | RGS5 dipeptide (di-RGS5) (from UniProt O15539 2-3)
 | could be oxidized by ADO | ~10 fold | 270 ± 5 nM | ~20 RU | ~80% | ~77 fold | H-CFPKVLSDDMKKLK-NH2 (C-terminus assumed) [IL32]

— PMC11406360, “The enzymatic oxygen sensor cysteamine dioxygenase binds its protein substrates through their N-termini” (The Journal of Biological Chemistry, 2024)
